{
  "source": "patent US20240209043A1",
  "about": "“NON-ANTIBODY BINDING PEPTIDES AND THEIR ANALOGS DUAL-TARGETING TO PD-1 AND PD-L1, AND USES THEREOF” (ORAL SUBSIDIARY SUN YAT-SEN UNIVERSITY HOSPITAL, priority 2021, published 2024)",
  "key": {"PD-L1 [1]": {"biological_target": "T1, PD-L1 (Homo sapiens, UniProt Q9NZQ7)", "details": "background section; read-out: Kd-value of antibody drug targeting PD-L1; cited from earlier work"}, "PD-1 [2]": {"biological_target": "T2, PD-1 (Homo sapiens, UniProt Q15116)", "details": "background section; read-out: Kd-value of antibody drug targeting PD-1; cited from earlier work"}, "Cal27 cells": {"tested_on": "Cal27 cells", "experiment": "CCK-8 cytotoxicity assay on Cal27 cells", "type": "cell-based, Human", "details": "CCK-8, 1-64 μM, 24 hours", "protocol": "(§1) Cytotoxicity assay was performed and measured with Cell Counting Kit-8 (CCK-8, Dujindo, Japan). Jurkat cells (each well with 4000 cells), PBMCs (each well with 4000 cells) and Cal27 cells (each well with 2000 cells) were added into a 96-well plate and cultured for 24 hours, respectively. nABP284, nABP386 and nABP486 in a concentration gradient of 1 μM, 2 μM, 3 μM, 4 μM, 8 μM, 16 μM, 32 μM and 64 μM were added into the medium and the cells were cultured for 24 hours in a cell incubator. After that, 10 μl of CCK-8 solution was added to each well and the cells were incubated for 2 hours. VictorX5 Multilabel plate reader (PerkinElmer, Singapore) was used for measuring absorbance of each well at 450 nm. Cell viability (%) was calculated by the following formula:\n(§2) Cell viability (%)=[(Sample A−Background A)/(Control A−Blank A)×100%. • Wherein Sample A denotes the absorbance of the experimental well (including cells, CCK-8 solution, medium and peptide diluent) • Background A denotes the absorbance of the background hole (including CCK-8 solution, medium, and peptide diluent without cells); • Control A denotes the absorbance of the control hole (including cells, CCK-8 solution and medium without peptide diluent); and • Blank A denotes the absorbance of the blank hole (including CCK-8 solution and medium without cells and peptide diluent)."}, "Jurkat T cells": {"tested_on": "Jurkat T cells", "experiment": "CCK-8 cytotoxicity assay on Jurkat T cells", "type": "cell-based, Human", "details": "CCK-8, 1-64 μM, 24 hours", "protocol": "as §1, §2"}, "[3]": {"tested_on": "peripheral blood derived lymphocytes", "experiment": "CCK-8 cytotoxicity assay on PBMCs / iCIKs", "type": "cell-based, Human", "details": "CCK-8, 1-64 μM, 24 hours", "protocol": "as §1, §2"}, "[4]": {"tested_on": "Cal27 cells co-cultured with iCIKs", "experiment": "iCIKs-mediated tumor killing efficiency on Cal27 cells (LDH release)", "type": "cell-based, Human", "details": "10 μM peptide or 2 ug/ml antibody, iCIKs:Cal27 10 to 1, 6 hours", "protocol": "Human peripheral blood and PBS are mixed at a ratio of 1 to 1, and then the mixture was added to the surface of Ficoll solution in an equal volume and the mixture and Ficoll were kept layered. Density gradient centrifugation (400 g, 20 min) was used for separating components of the peripheral blood. 10 ug/ml of Anti-CD3 monoclonal antibody (T210, TAKARA) was coated on cell culture dishes to cover the mixture at 4° C. overnight. The separated PBMCs were added to the coated dishes in which RPMI1640 medium supplemented with 10% of fetal calf serum, 2000 U/ml of IFN-γ, and 10 ng/ml of IL-2 was added and was changed every three days. After a ten-day culture, the stimulated PBMCs were known as improving cytokine-induced killer cells (iCIKs).\n500 U/ml of IFN-γ was used for stimulating Cal27 cells for 48 hours. The iCIKs were incubated with 10 uM of nABP284, 10 μM of nABP386, 10 μM of nABP486, and 2 ug/ml of PD-1 functional monoclonal antibody (J116, eBioscience|ThermoFisher Science) for 1 hour at 37° C., respectively, and the stimulated CAL27 cells were added to the 96-well plate at 1×10^4 cells per well. […] After these cells were co-cultured for 6 hours, a Cyto Tox Non-Radioactive Cytotoxicity Assay kit was used for detecting the level of lactic dehydrogenase (LDH) in the medium and VictorX5 multilabel plate reader (PerkinElmer, Singapore) was used for measuring absorbance at 490 nm."}, "PD-1 [5]": {"biological_target": "T2, PD-1", "experiment": "ka (1/Ms)", "description": "Table printed on a drawing sheet, Figure 2E\nTitle: nABP786 binding to PD-1\n(§3) Head of the field: ka (1/Ms)\n(§4) The patent's description of the figure: FIG. 2A depicts test results of binding affinity of nABP284 to PD-1 measured by surface plasmon resonance (SPR);\n(§5) FIG. 2B depicts test results of binding affinity of nABP386 to PD-1 measured by SPR;\n(§6) FIG. 2C depicts test results of binding affinity of nABP486 to PD-1 measured by SPR;\n(§7) FIG. 2D depicts test results of binding affinity of nABP486 to PD-L1 measured by SPR;\n(§8) FIG. 2E depicts test results of binding affinity of nABP786 to PD-1 measured by SPR;\n(§9) FIG. 2F depicts test results of binding affinity of nABP786 to PD-L1 measured by SPR;\nFirst copying reader's note: Inset table of SPR kinetic constants printed above the sensorgram; the target is PD-1.\nWhere the first naming reader finds the target: table_title: nABP786 binding to PD-1"}, "PD-L1 [6]": {"biological_target": "T1, PD-L1", "experiment": "ka (1/Ms)", "description": "Table printed on a drawing sheet, Figure 2F\nTitle: nABP786 binding to PD-L1\nas §3, §4, §5, §6, §7, §8, §9\nFirst copying reader's note: Inset table of SPR kinetic constants printed above the sensorgram; the target is PD-L1.\nWhere the first naming reader finds the target: table_title: nABP786 binding to PD-L1"}},
  "note": "Entries after “also recorded” stand apart in the source; their conditions may differ. Where a SMILES comes first, the peptide text is derived from it. Bridges are numbered along the chain shown (N, C = ends). Roman numbers before positions name the chains, in order. Where no end group is shown, it is not given here.",
  "data": [
    {"compound": "Atezolizumab", "values": [
      {"measurement": "Kd", "setting": "PD-L1 [1]", "value": 0.4, "unit": "nM"}
    ]},
    {"compound": "Cemiplimab", "values": [
      {"measurement": "Kd", "setting": "PD-1 [2]", "value": 6.11, "unit": "nM"}
    ]},
    {"compound": "I: SRLKEIANSPTQFWRMVARNTLGNHAKQSLNIEHA / II: SHHHRL (amide I:27-II:C) [nABP386]", "values": [
      {"measurement": "direct cytotoxicity to Cal27 cells", "setting": "Cal27 cells", "value": "no directly cytotoxicity; also recorded: non-toxic and side effects"},
      {"measurement": "direct cytotoxicity to Jurkat T cells", "setting": "Jurkat T cells", "value": "no directly cytotoxicity; also recorded: non-toxic and side effects"},
      {"measurement": "toxicity on peripheral blood derived lymphocytes", "setting": "[3]", "value": "non-toxic and side effects"},
      {"measurement": "iCIKs-mediated cytotoxicity (killing ability) for Cal27 cells", "setting": "[4]", "value": "can enhance the tumor killing effect of lymphocytes on tumor cells"}
    ]},
    {"compound": "CC[C@H](C)[C@H](NC(=O)[C@H](CCC(=O)O)NC(=O)[C@H](CCCCN)NC(=O)[C@H](CC(C)C)NC(=O)[C@H](CCCCNC(=O)[C@H](CC(C)C)NC(=O)[C@H](CCCNC(=N)N)NC(=O)[C@H](Cc1c[nH]cn1)NC(=O)[C@H](Cc1c[nH]cn1)NC(=O)[C@H](Cc1c[nH]cn1)NC(=O)[C@@H](N)CO)NC(=O)[C@H](CC(C)C)NC(=O)[C@H](CCCNC(=N)N)NC(=O)[C@H](Cc1c[nH]cn1)NC(=O)[C@H](Cc1c[nH]cn1)NC(=O)[C@H](Cc1c[nH]cn1)NC(=O)[C@@H](N)CO)C(=O)N[C@@H](C)C(=O)N[C@@H](CC(N)=O)C(=O)N[C@@H](CS)C(=O)N[C@@H](CO)C(=O)N1CCC[C@H]1C(=O)N[C@H](C(=O)N[C@@H](CCC(N)=O)C(=O)N[C@@H](Cc1ccccc1)C(=O)N[C@@H](CCCCN)C(=O)N[C@@H](CS)C(=O)O)[C@@H](C)O", "note": "[nABP786] (HELM PEPTIDE1{S.H.H.H.R.L.K.L.K.E.I.A.N.C.S.P.T.Q.F.K.C}|PEPTIDE2{S.H.H.H.R.L}$PEPTIDE1,PEPTIDE2,7:R3-6:R2$$$V2.0)", "values": [
      {"measurement": "ka", "setting": "PD-1 [5]", "value": 77600, "unit": "M⁻¹ s⁻¹"},
      {"measurement": "ka", "setting": "PD-L1 [6]", "value": 29000, "unit": "M⁻¹ s⁻¹"}
    ]},
    {"compound": "Toripalimab", "values": [
      {"measurement": "Kd", "setting": "PD-1 [2]", "value": 0.324, "unit": "nM"}
    ]},
    {"compound": "Durvalumab", "values": [
      {"measurement": "Kd", "setting": "PD-L1 [1]", "value": 0.667, "unit": "nM"}
    ]},
    {"compound": "I: SHHHRLKLKEIANSPTQFWRMVARNTLGNGAKQSLNIEHA / II: SHHHRL (amide I:7-II:C) [nABP486]", "values": [
      {"measurement": "direct cytotoxicity to Cal27 cells", "setting": "Cal27 cells", "value": "no directly cytotoxicity; also recorded: no direct killing ability to Cal27 cells; also recorded: non-toxic and side effects"},
      {"measurement": "direct cytotoxicity to Jurkat T cells", "setting": "Jurkat T cells", "value": "no directly cytotoxicity; also recorded: non-toxic and side effects"},
      {"measurement": "toxicity on peripheral blood derived lymphocytes", "setting": "[3]", "value": "non-toxic and side effects"},
      {"measurement": "iCIKs-mediated cytotoxicity (killing ability) for Cal27 cells", "setting": "[4]", "value": "significantly increased; also recorded: significantly reverse the immune escape of tongue cancer cells; also recorded: superior to functional anti-PD-1 antibody; also recorded: can enhance the tumor killing effect of lymphocytes on tumor cells"}
    ]},
    {"compound": "Cindilimab", "values": [
      {"measurement": "Kd", "setting": "PD-1 [2]", "value": 0.25, "unit": "nM"}
    ]}
  ]
}
